Data reported in US8980933B2, “Combretastatin analogs for use in the treatment of cancer” (Universitat Bayreuth, priority 2010, dated 2015).
≈ marks a conversion by molar mass, not a printed value. Where “and” joins values, the source holds several entries; their conditions need not be identical. Equal values may be shown once.

Columns and labels:
[1] = system: vascular system of a fertilized chicken embryo; experiment: CAM assay; type: in vivo; settings: 10 nmol applied on the embryonal vessels; up to three days
Description: Compounds of the present invention were tested for anti-angiogenic and vasculature disrupting properties using the CAM assay. In this test the vascular system of a fertilized chicken embryo is used as a model (Wilting et al., Anat. Embryol. 1991, 183, 259-271).
Fertilized chicken eggs received from a nearby farm directly after laying have been incubated at a temperature of 36-38° C. and a relative humidity of 60%. During the growth the eggs have been held in an inclined position and turned from time to time in order to avoid an adherence to the shell. After four days each embryo was transferred into a cavity created by fixing a thin plastic foil on top of a cup and covered. This was done by opening the shell at the flat end where the air sac resides and letting the content slip out. There the growth continued for another 2-4 days until the first blood vessels became visible. Then 10 nmol of the substance to be tested (in 10 μL PBS with 1% DMF) have been applied directly on the embryonal vessels. As a reference PBS was used. Finally incubation continued for up to another three days (Dugan et al., Anat. Rec. 1991, 229, 125-128; Fisher, Tested studies for laboratory teaching 1993, 5, 105-115).

[2] = system: HT-29 colon carcinoma cells; experiment: MTT cell growth inhibition, HT-29; type: cell-based, human; settings: multi-drug resistant HT-29 colon cancer cells
Description: (§1) The effects of the compounds 5b, 6b, 8a, and 8e according to the present invention and of the reference compound 25f (Wang et al., J. Med. Chem. 2002, 45, 1697-1711) on cells of the following human tumor cell lines were evaluated: 518A2 melanoma, HL-60 leukemia, HT-29 colon carcinoma, KB-V1/Vbl cervical carcinoma, and MCF-7/Topo breast carcinoma.
(§2) The HL-60 cells were obtained from the German Collection of Biological Material (DSMZ), Braunschweig, Germany; the human 518A2 melanoma cells as well as the testicular germ cell tumor cell lines H12.1 and 1411HP were cultured in the department of oncology and hematology, Medical Faculty of the Martin-Luther University, Halle, Germany; the KBV1/Vbl and the MCF-7/Topo cells were obtained from the Institute of Pharmacy of the University Regensburg, Germany; and the colon HT-29 cells from the University Hospital Erlangen, Germany. The HL-60 and the HT-29 cells were grown in RPMI-1640 medium supplemented with 10% fetal calf serum (FCS), 100 IU/mL penicillin G, 100 μg/mL streptomycin sulfate, 0.25 μg/mL amphotericin B and 250 μg/mL gentamycine (all from Gibco, Egenstein, Germany). The 518A2 and the KB-V1/Vbl cells were cultured in Dulbecco's Modified Eagle Medium (D-MEM, Gibco) containing 10% FCS, 100 IU/mL penicillin G, 100 μg/mL streptomycin sulfate, 0.25 μg/mL amphotericin B and 250 μg/mL gentamycine. The MCF-7/Topo cells were grown in E-MEM medium (Sigma) supplemented with 2.2 g/L NaHCO3, 110 mg/L sodium pyruvate and 5% FCS. The cells were maintained in a moisture-saturated atmosphere (5% CO2) at 37° C. in 75-mL culture flasks (Nunc, Wiesbaden, Germany). They were serially passaged following trypsinisation by 0.05% trypsin/0.02% EDTA (PAA laboratories, Clbe, Germany). Mycoplasma contamination was routinely monitored, and only mycoplasma-free cultures were used.
(§3) MTT [3-(4,5-dimethylthiazol-2-yl)-2,5-diphenyltetrazolium bromide](ABCR) was used to identify viable cells which reduce it to a violet formazan (Mosmann, J. Immunol. Methods 1983, 65, 55-63). HL-60 leukemia cells (5×10^5/mL), and cells (5×10^4/mL) of 518A2 melanoma, HT-29 colon, KB-V1/Vbl cervix and MCF-7/Topo breast carcinoma were seeded out in 96-well tissue culture plates and cultured for 24 h. Incubation (5% CO2, 95% humidity, 37° C.) of the cells following treatment with the test compounds was continued for 24, 48 or 72 h. Blank and solvent controls were treated identically. MTT in phosphate buffered saline (5 mg/mL) was added to a final concentration of 0.05% (HL-60, 518A2) or 0.1% (HT-29, KB-V1/Vbl, MCF-7/Topo). After 2 h the formazan precipitate was dissolved in 10% sodium dodecylsulfate in DMSO containing 0.6% acetic acid in the case of the HL-60 cells. For the adherent 518A2, KB-V1/Vbl, MCF-7/Topo and HT-29 cells the microplates were swiftly turned to discard the medium before adding the solvent mixture. The microplates were gently shaken in the dark for 30 min and absorbance at 570 nm and 630 nm (background) was measured with an ELISA plate reader. All experiments were carried out in quadruplicate; the percentage of viable cells was calculated as the mean±SD with controls set to 100%.

L929 fibroblasts = experiment: Cytotoxicity, L929; type: cell-based; settings: Mus musculus, read-out: IC50 L-929
Description: (§4) The compounds 9a, 9b and 9c, which are exemplary compounds of formula (III) according to the present invention, as well as the reference compound 25f were tested in a similar manner.

HUVEC cells [3] = experiment: Minimal inhibitory concentration in HUVEC; type: cell-based
Description: as §4

PC-3 prostata cancer = experiment: Cytotoxicity, PC-3; type: cell-based
Description: as §4

[4] = system: PtK-2 opossum kidney cells; experiment: Cytotoxicity, PtK-2; type: cell-based; settings: PtK2; PtK-2 opossum kidney cells (non-malign)
Description: as §4

KB-3-1 cervix carcinoma = experiment: Cytotoxicity, KB-3-1; type: cell-based; settings: Homo sapiens
Description: as §4

NHDF fibroblasts = experiment: Cytotoxicity, NHDF; type: cell-based; settings: Homo sapiens; NHDF fibroblasts (non-malign)
Description: as §4

[5] = system: 1411HP germ cell tumor xenografts; settings: 1411HP xenografts; cited from earlier work
H12.1 xenograft = H12.1 xenograft bearing mice; cited from earlier work
HUVEC cells [6] = experiment: Tube formation assay on matrigel; type: cell-based
Description: 35 μL of media:matrigel (1:1) were added into wells of a 96-well plate and incubated at 37° C. for 30 minutes. A trypsinized HUVEC cell suspension was set to 800.000 cells/mL. In another 96-well plate 25 μL of the compound stock were serially diluted with 25 μL of media. 25 μL of compound dilutions and 25 μL of cell suspension were added to the matrigel coated 96-well plate and the cells were incubated over night. As a negative control, methanol was used as in place of the compound dilutions.

518A2 cells [7] = experiment: Mitochondrial membrane assay (JC-1), 518A2; type: cell-based, human; settings: 5 μM, red/green fluorescence ratio relative to untreated controls (100%), mean ± SD
Description: (§5) Values represent means of four independent experiments±standard deviation.
(§6) Changes in mitochondrial membrane potential were determined by the Mitochondrial Membrane Detection Kit (Stratagene, La Jolla, Calif., USA) according to the manufacturer's procedure. 72 h following treatment with 5 μM of the test compounds, cell samples were centrifuged at 400 g for 5 min. The pellets were resuspended in 500 μL diluted JC-1 solution, incubated at 37° C. for 15 min (HL-60) and then centrifuged again for 5 min at 400 g. After washing, the pellets were resuspended in 100 μL PBS and transferred into the wells of a black 96-well plate. The red (λex=585 nm, λem=590 nm) and green (λex=510 nm, λem=527 nm) fluorescence intensities were measured and their ratio was calculated.

518A2 cells [8] = experiment: ROS generation, NBT assay, 518A2; type: cell-based, human; settings: 50 μM, relative to untreated controls (1%), mean ± SD
Description: (§7) The generation of reactive oxygen species (ROS) in tumor cells is a sign of cellular stress resulting in severe damage of cellular components such as DNA, lipids or proteins.
(§8) For the NBT assay, HL-60 cells (0.5·10^6/mL) were plated in 96-well tissue culture plates, and test compounds were added after 24 h incubation at 37° C. to achieve a final concentration of 50 μM. […] After removal of the cell medium by centrifugation, the cells in each well were resuspended in 100 μL 0.1% NBT, and the plates were placed in the incubator for 1 h. The reduced NBT was solubilized with 100 μl 2 M KOH and 130 μl DMSO for 30 min. The absorbance was measured for each well at 630 and 405 nm (background) using an ELISA plate reader. The adherent 518A2 cells (0.5·10^4/mL) were seeded out in 96-well tissue culture plates after trypsinization and incubation for 24 h at 37° C. to allow attachment, then treated similarly, only that the medium was removed prior to incubation with NBT for 4 h. All experiments were carried out in quadruplicate.

HL-60 cells [9] = experiment: Mitochondrial membrane assay (JC-1), HL-60; type: cell-based, human; settings: 5 μM, red/green fluorescence ratio relative to untreated controls (100%), mean ± SD
Description: as §5, §6

[10] = Bedford et al., Bioorg. Med. Chem. Lett. 1996; cited from earlier work
[11] = system: KB-V1/Vbl cervical carcinoma cells; experiment: MTT cell growth inhibition, KB-V1/Vbl; type: cell-based, human; settings: KB-V1/Vbl (Pgp+)
Description: The MCF-7/Topo cells were grown in E-MEM medium (Sigma) supplemented with 2.2 g/L NaHCO3, 110 mg/L sodium pyruvate and 5% FCS. The cells were maintained in a moisture-saturated atmosphere (5% CO2) at 37° C. in 75-mL culture flasks (Nunc, Wiesbaden, Germany). They were serially passaged following trypsinisation by 0.05% trypsin/0.02% EDTA (PAA laboratories, Clbe, Germany). Mycoplasma contamination was routinely monitored, and only mycoplasma-free cultures were used.
as §3, with “HL-60” for “MTT [3-(4,5-dimethylthiazol-2-yl)-2,5-diphenyltetrazolium bromide](ABCR) was used to identify viable cells which reduce it to a violet formazan (Mosmann, J. Immunol. Methods 1983, 65, 55-63). HL-60”, “Incubation (5% CO2, 95% humidity, 37° C.) of the cells following treatment with the test compounds was continued for 24, 48 or 72 h.” left out

HL-60 cells [12] = experiment: ROS generation, NBT assay, HL-60; type: cell-based, human; settings: 50 μM, relative to untreated controls (1%), mean ± SD
Description: as §7, §8

[13] = system: MCF-7/Topo breast carcinoma cells; experiment: MTT cell growth inhibition, MCF-7/Topo; type: cell-based, human; settings: MCF-7/Topo (BCRP+)
Description: as §1, §2
as §3, with “MTT in phosphate buffered saline (5 mg/mL) was added to a final concentration of 0.05% (HL-60, 518A2) or 0.1% (HT-29, KB-V1/Vbl, MCF-7/Topo). After 2 h the formazan precipitate was dissolved in 10% sodium dodecylsulfate in DMSO containing 0.6% acetic acid in the case of the HL-60 cells. For the adherent 518A2, KB-V1/Vbl, MCF-7/Topo and HT-29 cells the microplates were swiftly turned to discard the medium before adding the solvent mixture.” left out

HL-60 cells [14] = experiment: TUNEL assay; type: cell-based, human; settings: 10 μM; 16 h incubation

Row | SMILES | IC50 (L929 fibroblasts) [nM] | minimal inhibitory concentration (MIC) HUVEC (HUVEC cells [3]) [nM] | IC50 (PC-3 prostata cancer) [nM] | IC50 [4] [nM] | IC50 (KB-3-1 cervix carcinoma) [nM] | IC50 (NHDF fibroblasts) [nM] | also measured
1 | COc1ccc(/C=C\c2cc(OC)c(OC)c(OC)c2)cc1O [CA-4, combretastatin A-4, reference compound] | – | – | – | – | – | – | effect on embryonal blood vessels [1]: dramatic vessel shrinkage within 24 h after treatment and to a complete degradation of the vascular system within three days; cytotoxicity (comparison) [2]: lower cytotoxicities than compounds 5b and 6b
2 | COc1ccc(-c2ncn(C)c2-c2cc(I)c(OC)c(I)c2)cc1F [9c, 1-Methyl-4-(3-fluoro-4-methoxyphenyl)-5-(3,5-diiodo-4-methoxyphenyl)-imidazole] | 18 | 83 (≈ 0.0468 µg/mL) | 3.3 | 333 | 2.5 | 3330 | –
3 | N.N.[Cl][Pt][Cl] [cisplatin] | – | – | – | – | – | – | tumor response [5]: only a transient growth inhibition followed by renewed tumor progress; tumor response (H12.1 xenograft): complete regressions
4 | COc1ccc(-c2c(-c3cc(OC)c(OC)c(OC)c3)ncn2C)cc1N [compound 25f, reference compound] | 215 | 294 (≈ 0.109 µg/mL) | 90 | 453 | 68 | 136 | concentration that inhibits tube formation (HUVEC cells [6]): 130 ng/mL; Intact mitochondria [%] in 518A2 cells after 72 h (518A2 cells [7]): 87 ± 7%; NBT Reduction [%] in 518A2 cells after 24 h (518A2 cells [8]): 2.2 ± 0.4%; Intact mitochondria [%] in HL-60 cells after 72 h (HL-60 cells [9]): 74% and 74 ± 13%
5 | COc1ccc(/C=C\c2cc(OC)c(OC)c(OC)c2)cc1OP(=O)(O)O [combretastatin A-4-phosphate] | – | – | – | – | – | – | solubility in water [10]: about 5 mg/mL
6 | COc1ccc(-c2ocnc2-c2cc(N)c(OC)c(OC)c2)cc1N [compound 8a, 4-(3′-Amino-4′,5′-dimethoxyphenyl)-5-(3″-amino-4″-methoxyphenyl)-oxazole] | – | – | – | – | – | – | efficacy (comparison) [11]: greater efficacy than 25f and 5b/6b; inhibition of tube formation (HUVEC cells [6]; 7.72 ng/mL): pronounced inhibition of tube formation; Intact mitochondria [%] in 518A2 cells after 72 h (518A2 cells [7]): 85 ± 7%; NBT Reduction [%] in HL-60 cells after 24 h (HL-60 cells [12]): 3.5 ± 0.4%; NBT Reduction [%] in 518A2 cells after 24 h (518A2 cells [8]): 1.5 ± 0.1%; Intact mitochondria [%] in HL-60 cells after 72 h (HL-60 cells [9]): 62 ± 9%; cytotoxicity / efficacy (comparison) [13]: greater efficacy than 25f and 5b/6b; apoptotic (TUNEL-positive) cells (HL-60 cells [14]): about 60%
7 | COc1ccc(-c2ncn(C)c2-c2cc(Br)c(OC)c(Br)c2)cc1F [9b, 1-Methyl-4-(3-fluoro-4-methoxyphenyl)-5-(3,5-dibromo-4-methoxyphenyl)-imidazole] | 21700 | 257 (≈ 0.121 µg/mL) | 9.9 | 1180 | 14 | 395 | –
